Test results from article PMC3191288 (Matrix biology : journal of the International Society for …, 2011).
Values belong to the molecule of their own block, whether it stands above or below them.

Experiments:
[1] = test system: proMMP-2 activation by HT1080 cell membranes; assay: Activation of purified proMMP-2 by isolated HT1080 cell membranes; type: biochemical, human; details: peptide 3.7–100 μM, 16 h at 22 °C, pH 7.4; repeated at least 3 times
[2] = molecular target: T1, PEX (hemopexin domain of MMP-2) (Homo sapiens, UniProt P08253); assay: Surface plasmon resonance, PEX over immobilized peptide; type: binding; details: PEX 0.3–10 μM over immobilized peptide, SPR
T1 sequence (P08253 446-660): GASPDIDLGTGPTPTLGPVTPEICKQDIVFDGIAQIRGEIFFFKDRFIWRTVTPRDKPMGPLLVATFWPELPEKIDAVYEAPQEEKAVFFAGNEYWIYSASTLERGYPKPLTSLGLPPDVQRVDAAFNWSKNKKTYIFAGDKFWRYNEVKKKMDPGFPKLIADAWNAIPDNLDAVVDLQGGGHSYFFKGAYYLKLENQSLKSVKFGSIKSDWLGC

[3] = test system: collagen binding domain of MMP-2 (CBD); assay: Surface plasmon resonance, CBD over immobilized peptide; parameters: species or system human; details: CBD 10 μM over immobilized peptide, SPR
[4] = test system: proMMP-2 activation in HT1080 fibrosarcoma cells; assay: Cell surface activation of proMMP-2 in Con A stimulated HT1080 cell culture; type: cell-based, human; details: Con A 20 μg/ml, 0 nM C-TIMP-2
[5] = molecular target: recombinant human MMP-2^E404A (human) (UniProt P08253); assay: ELISA
[6] = molecular target: recombinant full-length TIMP-2 (human (plasmid pGWIGH/htimp-2)) (UniProt P16035); assay: ELISA
recombinant full-length TIMP-2 (human (plasmid pGWIGH/htimp-2)), sequence (P16035 27-220): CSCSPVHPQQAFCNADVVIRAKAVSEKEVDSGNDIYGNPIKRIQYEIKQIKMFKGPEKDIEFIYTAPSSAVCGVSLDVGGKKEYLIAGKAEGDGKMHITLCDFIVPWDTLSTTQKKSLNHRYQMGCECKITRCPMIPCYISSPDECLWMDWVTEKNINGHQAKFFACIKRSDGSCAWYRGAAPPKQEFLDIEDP

proMMP-2 activation = details: ref Strongin et al., 1995; cited from earlier work
[7] = molecular target: recombinant full-length TIMP-2 (human (plasmid pGWIGH/htimp-2), UniProt P16035 27-220); assay: ELISA
recombinant full-length TIMP-2, sequence (P16035 27-220): as above

Molecule: CAWYRGAAPPK [P175S]
inhibition of proMMP-2 activation by peptide [1]: did not have any inhibitory effect on the cell membrane- mediated activation of proMMP-2
binding of PEX to peptide [2]: consistently very weak
binding of CBD to peptide [3]: did not bind

Molecule: concanavalin A [Con A]
activated MMP-2 band intensity [4]: 34,199 RDU
non-activated MMP-2 band intensity [4]: 3,439 RDU
proMMP-2 activated by Con A [4]: > 90%

Molecule: tissue inhibitor of matrix metalloproteinase 2 [TIMP-2]
concentration at which full-length TIMP-2 inhibited activation of proMMP-2 (proMMP-2 activation): greater than 285 nM

Further lines, results first:

IC50 [5]: 5000 nM
Kd [5]: 390 nM
Molecule: recombinant carboxyl-terminal domain of TIMP-2 (C-TIMP-2) (from UniProt P16035 154-220) (domain or fragment)

EC50 [6]: 50 nM
Molecule: recombinant human MMP-2^E404A (from UniProt P08253 30-660) (enzyme)

EC50 [7]: 150 nM
B1: hemopexin-like domain of MMP-2 (PEX) (domain or fragment, human, UniProt P08253 446-660, looked up)
chain: T1 sequence (P08253 446-660)
modifications: biotinylated (sites not given) in the assays on coated TIMP-2; unlabeled when coated and in SPR
